Test results published in PubChem BioAssay (NCI).
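Interpolation was linear, between the two tested concentrations surrounding the appropriate level; five concentrations were tested over 48 hours in 96-well plates. TGI marks complete inhibition of growth.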

What was measured:
Test in all cases: NCI anticancer screen, dose series, 48 h
786-0 renal = system: 786-0 renal
A498 renal = system: A498 renal
A549 NSCLC = system: A549 NSCLC
ACHN renal = system: ACHN renal
BT-549 breast = system: BT-549 breast
CAKI-1 renal = system: CAKI-1 renal
CCRF-CEM leukemia = system: CCRF-CEM leukemia
COLO 205 colon = system: COLO 205 colon
DU-145 prostate = system: DU-145 prostate
EKVX NSCLC = system: EKVX NSCLC
HCC-2998 colon = system: HCC-2998 colon
HCT-116 colon = system: HCT-116 colon
HCT-15 colon = system: HCT-15 colon
HL-60(TB) leukemia = system: HL-60(TB) leukemia
HOP-62 NSCLC = system: HOP-62 NSCLC
HOP-92 NSCLC = system: HOP-92 NSCLC
HT29 colon = system: HT29 colon
IGROV1 ovarian = system: IGROV1 ovarian
K-562 leukemia = system: K-562 leukemia
KM12 colon = system: KM12 colon
LOX IMVI melanoma = system: LOX IMVI melanoma
M14 melanoma = system: M14 melanoma
MALME-3M melanoma = system: MALME-3M melanoma
MCF7 breast = system: MCF7 breast
MDA-MB-231 breast = system: MDA-MB-231 breast
MDA-MB-435 = system: MDA-MB-435
MDA-N = system: MDA-N
MOLT-4 leukemia = system: MOLT-4 leukemia
NCI-H226 lung = system: NCI-H226 lung
NCI-H23 lung = system: NCI-H23 lung
NCI-H460 lung = system: NCI-H460 lung
NCI-H522 lung = system: NCI-H522 lung
NCI/ADR-RES ovarian = system: NCI/ADR-RES ovarian
OVCAR-3 ovarian = system: OVCAR-3 ovarian
OVCAR-4 ovarian = system: OVCAR-4 ovarian
OVCAR-5 ovarian = system: OVCAR-5 ovarian
OVCAR-8 ovarian = system: OVCAR-8 ovarian
PC-3 prostate = system: PC-3 prostate
RPMI-8226 leukemia = system: RPMI-8226 leukemia
RXF 393 renal = system: RXF 393 renal
SF-268 CNS = system: SF-268 CNS
SF-295 CNS = system: SF-295 CNS
SF-539 CNS = system: SF-539 CNS
SK-MEL-2 melanoma = system: SK-MEL-2 melanoma
SK-MEL-28 melanoma = system: SK-MEL-28 melanoma
SK-MEL-5 melanoma = system: SK-MEL-5 melanoma
SK-OV-3 ovarian = system: SK-OV-3 ovarian
SN12C renal = system: SN12C renal
SNB-19 CNS = system: SNB-19 CNS
SNB-75 CNS = system: SNB-75 CNS
SW-620 colon = system: SW-620 colon
T-47D breast = system: T-47D breast
TK-10 renal = system: TK-10 renal
U251 CNS = system: U251 CNS
UACC-257 melanoma = system: UACC-257 melanoma
UACC-62 melanoma = system: UACC-62 melanoma
UO-31 renal = system: UO-31 renal

`CCO[C@@]1(COCc2ccccc2)OC(=O)C[C@@H]1N1C(=O)OC[C@@H]1c1ccccc1` was tested, and the TGI (786-0 renal) was > 100 µM, the TGI (A498 renal) was > 100 µM and the TGI (A549 NSCLC) was > 100 µM. For the same compound, the TGI (ACHN renal) was > 100 µM, the TGI (BT-549 breast) was > 100 µM and the TGI (CAKI-1 renal) was 76.4 µM. For the same compound, the TGI (CCRF-CEM leukemia) was > 100 µM, the TGI (COLO 205 colon) was > 100 µM and the TGI (DU-145 prostate) was > 100 µM. The TGI (EKVX NSCLC) was > 100 µM, the TGI (HCC-2998 colon) was > 100 µM and the TGI (HCT-116 colon) was > 100 µM. The TGI (HCT-15 colon) was > 100 µM, the TGI (HL-60(TB) leukemia) was > 100 µM and the TGI (HOP-62 NSCLC) was 73 µM. The TGI (HOP-92 NSCLC) was > 100 µM, the TGI (HT29 colon) was > 100 µM and the TGI (IGROV1 ovarian) was > 100 µM. The TGI (K-562 leukemia) was > 100 µM, the TGI (KM12 colon) was > 100 µM and the TGI (LOX IMVI melanoma) was > 100 µM. The TGI (M14 melanoma) was > 100 µM, the TGI (MALME-3M melanoma) was > 100 µM and the TGI (MCF7 breast) was > 100 µM. For the same compound, the TGI (MDA-MB-231 breast) was > 100 µM, the TGI (MDA-MB-435) was > 100 µM and the TGI (MDA-N) was > 100 µM. The TGI (MOLT-4 leukemia) was > 100 µM, the TGI (NCI-H226 lung) was > 100 µM and the TGI (NCI-H23 lung) was > 100 µM. For the same compound, the TGI (NCI-H460 lung) was > 100 µM, the TGI (NCI-H522 lung) was > 100 µM and the TGI (NCI/ADR-RES ovarian) was > 100 µM. The TGI (OVCAR-3 ovarian) was > 100 µM, the TGI (OVCAR-4 ovarian) was > 100 µM and the TGI (OVCAR-5 ovarian) was > 100 µM. For the same compound, the TGI (OVCAR-8 ovarian) was > 100 µM, the TGI (PC-3 prostate) was > 100 µM and the TGI (RPMI-8226 leukemia) was > 100 µM. The TGI (RXF 393 renal) was > 100 µM, the TGI (SF-268 CNS) was > 100 µM and the TGI (SF-295 CNS) was > 100 µM. For the same compound, the TGI (SF-539 CNS) was > 100 µM, the TGI (SK-MEL-2 melanoma) was > 100 µM and the TGI (SK-MEL-28 melanoma) was > 100 µM. The TGI (SK-MEL-5 melanoma) was > 100 µM, the TGI (SK-OV-3 ovarian) was > 100 µM and the TGI (SN12C renal) was > 100 µM. For the same compound, the TGI (SNB-19 CNS) was > 100 µM, the TGI (SNB-75 CNS) was > 100 µM and the TGI (SW-620 colon) was > 100 µM. For the same compound, the TGI (T-47D breast) was > 100 µM, the TGI (TK-10 renal) was > 100 µM and the TGI (U251 CNS) was > 100 µM. For the same compound, the TGI (UACC-257 melanoma) was > 100 µM, the TGI (UACC-62 melanoma) was > 100 µM and the TGI (UO-31 renal) was > 100 µM.
